Like-named read-outs stand apart in the source and are kept apart here.
Assays:
[1] = tested on: NFAT-driven β-lactamase synthesis (Icrac activation) in NFAT-β-lactamase Jurkat cells; assay: NFAT-β-lactamase gene-reporter assay in Jurkat cells (Jk-NFAT-βlac), CCF2-AM ratio 460/535; assay type: cell-based; settings: for Effect on β-lactamase synthesis at 10 μM / Effect on TG-driven β-lactamase synthesis / NFAT activation: Jurkat cells; for Effect on β-lactamase synthesis at 10 μM: TG 1 μM (FIG. 4); for Effect on TG-driven β-lactamase synthesis / NFAT activation: with TG 1 μM for 4 h (FIG. 4)
Method: (§1) Jurkat cell lines (Jk-NFAT-βlac) stably transfected with plasmid containing 3×NFAT-β-lactamase reporter gene (for NFAT promoter sequence see (19)), and plasmid containing CMV-β-lactamase (Jk-CMV-βlac), where CMV is a constitutively active promoter as well as HEK cells (HEK-CRE-βlac) with 3×CRE-β-lactamase (the CRE promoter contains CRE box sequence of CGTCA (20)) were obtained from Aurora Biosciences Corp (San Diego, Calif.).
Jurkat cells were grown in RPMI 1640 medium supplemented with 10% foetal bovine serum, 2 mM L-glutamine, 1 mM NEAA, 1 mM Na pyruvate, 25 mM HEPES, pH 7.4, gentamicin 100 μg/ml. HEK-293 cells were grown in MEM glutamax, supplemented with 10% FBS, gentamycin 100 μg/ml, HEPES 20 mM. Medium for stable cell propagation contained 250 μg/ml Zeocin (Jk-NFAT-βlac) or 800 μg/ml Geneticin (Jk-CMV-βlac, HEK-CRE-βlac). […] Cells were then loaded, for 1 h in the dark at room temperature, with 12 μM CCF2-AM (13). Fluorescence was monitored with a Fluostar (BMG, Germany) fluorimeter. Excitation was at 405 nm, and emission record at 460 nm and 535 nm. The ratio (460 nm/535 nm) of fluorescence unit (F.U.) was estimated after correction for background (medium without cells). HEK-CRE-βlac were stimulated using Forskolin 10 μM in the medium mentioned above (4×10^4 cells/well). All reagents were added with the stimulator agent (e.g. TG or forskolin), unless noticed.

[2] = tested on: NFAT-β-lactamase Jurkat cells; assay: CCF2-AM loading capacity of NFAT-β-lactamase Jurkat cells (F.U. at 535 nm); settings: for Toxic effects (weak loading): 50 μM, data not shown
β-lactamase = β-lactamase inhibitor; cited from earlier work
Icrac channel = assay: Optical measurement of intracellular [Ca++] with Fura-2; assay type: cell-based; settings: Fura-2 as probe
Method: Loading with 2 μM fura-2-AM was performed with a 3×10^6 cells suspension for 30 min at 37° C., in Hanks buffer saline solution (HBSS). Cells were washed and resuspended twice to minimize extracellular dye. Fura-2 fluorescence measurements were carried out in a water-jacketed cuvette (room temperature) with continuous stirring, containing 1 ml of the cells suspension. Fluorescence was monitored with a Shimadzu spectrofluorophotometer by continuously (1 sec intervals) collecting excitation signals at 340 nm and 380 nm and emission signal at 510 nm. Maximal and minimal fluorescence were obtained by adding ionomycin 25 μM and EGTA (20 mM) respectively and sequentially at the end of the experiment. The ratio of excitation signals at 340 nm and 380 nm was used to calculate [Ca^++] as previously described (21) assuming a Kd of 155 nM.

[3] = tested on: constitutive β-lactamase (CMV-driven) in Jurkat cells; assay: Constitutive CMV-β-lactamase Jurkat cell assay (Jk-CMV-βlac); assay type: cell-based; settings: Jk-CMV-βlac cells (FIG. 6, DMSO 3%)
Method: as §1
Jurkat cells were grown in RPMI 1640 medium supplemented with 10% foetal bovine serum, 2 mM L-glutamine, 1 mM NEAA, 1 mM Na pyruvate, 25 mM HEPES, pH 7.4, gentamicin 100 μg/ml. HEK-293 cells were grown in MEM glutamax, supplemented with 10% FBS, gentamycin 100 μg/ml, HEPES 20 mM. Medium for stable cell propagation contained 250 μg/ml Zeocin (Jk-NFAT-βlac) or 800 μg/ml Geneticin (Jk-CMV-βlac, HEK-CRE-βlac). In a 96-well plate, 1 μM Thapsigargin (TG) was used to stimulate NFAT Jurkat cells (10^5 per well), for 4 h at 37° C., 5% CO2, in Dulbecco's Modified Essential Medium ([Ca^++] 1.8 mM) 10% FBS, gentamycin 100 μg/ml. Cells were then loaded, for 1 h in the dark at room temperature, with 12 μM CCF2-AM (13). Fluorescence was monitored with a Fluostar (BMG, Germany) fluorimeter. Excitation was at 405 nm, and emission record at 460 nm and 535 nm. The ratio (460 nm/535 nm) of fluorescence unit (F.U.) was estimated after correction for background (medium without cells). […]

[4] = tested on: NFAT-driven β-lactamase synthesis in p815 mastocyte cells; assay: NFAT-β-lactamase gene-reporter assay in p815 mastocytes (p815-NFAT-βlac); assay type: cell-based; settings: mastocytes (not shown)
Method: The mastocyte monoclonal cell line (p815-NFAT-βlac) stably transfected with plasmid containing 3×NFAT-β-lactamase were obtained as follow. Cells (1.10^7/ml) were electroporated in a 0.4 cm gap cuvette using a BioRad Gene Pulser II at 960 μF and 300V, using 20 μg of pcDNAIII 3×NFAT-β-lactamase Zeomycin expression vector (from Aurora Biosciences Corp; San Diego, Calif.) in DMEM medium. After 48 h, electroporated p815 cells were selected for 2 weeks using 250 μg/ml Zeocin (InVitrogen, Calif.). A pool of TG responding cells were first sorted, using FACS Vantage (Becton Dickinson, Calif.), and a week after, 200 cells were monosorted (one cell per well) from this pool, 15 clones grown up, and were tested as follow.
Jurkat cells were grown in RPMI 1640 medium supplemented with 10% foetal bovine serum, 2 mM L-glutamine, 1 mM NEAA, 1 mM Na pyruvate, 25 mM HEPES, pH 7.4, gentamicin 100 μg/ml. HEK-293 cells were grown in MEM glutamax, supplemented with 10% FBS, gentamycin 100 μg/ml, HEPES 20 mM. Medium for stable cell propagation contained 250 μg/ml Zeocin (Jk-NFAT-βlac) or 800 μg/ml Geneticin (Jk-CMV-βlac, HEK-CRE-βlac). […] Fluorescence was monitored with a Fluostar (BMG, Germany) fluorimeter. […] The ratio (460 nm/535 nm) of fluorescence unit (F.U.) was estimated after correction for background (medium without cells). […]

COc1ccc([C@@H]2Sc3ccccc3N(CCN(C)C)C(=O)[C@@H]2OC(C)=O)cc1 [Diltiazem]
Effect on β-lactamase synthesis at 10 μM [1]: did not have any effect
Toxic effects (weak loading) [2]: Toxic effects were detected

C[C@]1(Cn2ccnn2)[C@H](C(=O)O)N2C(=O)C[C@H]2S1(=O)=O [Tazobactam]
Ki (β-lactamase): 0.7 µM
IC50 ([1]; Homo sapiens, Jurkat, NFAT-driven (FIG. 4), read-out: IC50, block of NFAT-driven β-lactamase): 2 µM

COc1ccc(CCN(C)CCCC(C#N)(c2ccc(OC)c(OC)c2)C(C)C)cc1OC (stereo not drawn) [Verapamil]
Effect on β-lactamase synthesis at 10 μM [1]: did not have any effect
Toxic effects (weak loading) [2]: Toxic effects were detected

CCCCCCCCCCCCCC(=O)O[C@@H]1[C@@H](C)[C@@]2(O)[C@@H](C=C(CO)C[C@]3(O)C(=O)C(C)=C[C@@H]23)[C@@H]2C(C)(C)[C@]12OC(C)=O [PMA, phorbol myristate acetate]
Ratio (460 nm/535 nm) [1]: 0.012 ± 0.008
% total (TG 1 μM) ([1]; PMA 10 nM): 2%

CC(=O)C1=C(O)[C@@H]2[C@H]3c4c[nH]c5cccc(c45)C[C@H]3C(C)(C)N2C1=O [CPA, cyclopiazonic acid]
Ratio (460 nm/535 nm) [1]: 0.407 ± 0.041
% total (TG 1 μM) ([1]; CPA 10 μM): 59%

calyculin
Effect on TG-driven β-lactamase synthesis / NFAT activation [1]: blocked the NFAT activation in a dose dependent manner

C[S+](C)[O-] [DMSO, dimethyl sulfoxide]
Interference with the assay ([1]; 0.5% final concentration): did not hinder the assay
Effect on β-lactamase synthesis when added after TG activation ([1]; added 3 hrs after TG activation): did not block β-lactamase synthesis
Effect on the Icrac channel, [Ca++]i determination (Icrac channel): no effect
Effect on constitutive β-lactamase synthesis [3]: no effect
F.U. at 535 nm, % control ([2]; DMSO 0.1%): 99.2%
F.U. at 535 nm, % control ([2]; DMSO 1%): 96.1%
F.U. at 535 nm, % control ([2]; DMSO 2%): 97%
F.U. at 535 nm, % control ([2]; DMSO 4%): 107.7%
F.U. at 535 nm, % control ([2]; DMSO 5%): 110.1%

C=C1[C@@H](O)[C@@H]2O[C@]3(CC[C@H](/C=C/[C@@H](C)[C@@H]4CC(C)=C[C@@]5(O[C@H](C[C@@](C)(O)C(=O)O)CC[C@H]5O)O4)O3)CC[C@H]2O[C@@H]1[C@@H](O)C[C@H](C)[C@H]1O[C@@]2(CCCCO2)CC[C@H]1C [Okadaic acid, okadaic acid]
Effect on TG-driven β-lactamase synthesis / NFAT activation [1]: blocked the β-lactamase synthesis
Effect on β-lactamase synthesis [4]: blocked the β-lactamase synthesis

phytohemaggutinin [PHA]
% total (TG 1 μM) ([1]; PHA 1 μg/ml): 41%
Ratio (460 nm/535 nm) ([1]; PHA 1 μg/ml): 0.280 ± 0.116
% total (TG 1 μM) ([1]; PHA 10 μg/ml): 84%
Ratio (460 nm/535 nm) ([1]; PHA 10 μg/ml): 0.578 ± 0.040

C/C=C(/C)C(=O)O[C@H]1C(C)=C2[C@H]([C@@H]1OC(=O)CCCCCCC)[C@@](C)(OC(C)=O)C[C@H](OC(=O)CCC)[C@@]1(O)[C@H]2OC(=O)[C@@]1(C)O [TG, thapsigargin]
β-lactamase synthesis versus TG concentration ([1]; 5-10 μM TG): decrease was observed
% total (TG 1 μM) ([1]; TG 1 μM): 100%
Ratio (460 nm/535 nm) ([1]; TG 1 μM): 0.688 ± 0.035
Relative potency as Icrac activator (in words) ([1]; Table 1): most active Icrac activator
β-lactamase synthesis versus TG concentration ([1]; concentrations higher than 1 μM (FIG. 2C)): did not further increase the β-lactamase synthesis
β-lactamase activity with thapsigargin alone ([1]; conventional conditions, 0.4 mM [Ca++] (FIG. 2B)): weak

C[C@@H]1C[C@@H]([C@H](O)CC2CC(=O)NC(=O)C2)C(=O)[C@@H](C)C1 [CHX, cycloheximide]
Effect on β-lactamase synthesis when added after TG stimulation ([1]; added as long as 4 hrs after TG stimulation): inhibitory effect

Reference: US6696267B2, “Methods and compositions for screening Icrac modulators” (Warner-Lambert Company, priority 2000, dated 2004)
